# Data reported in US11583494B2, “Pharmaceutical composition for nasal administration” (MEDILABO RFP, INC., priority 2017, dated 2023).
# Assays:
# [1] = Impaired liver function: hepatic enzymes AST (GOT) and ALT (GPT) in serum; format: in vivo, mouse; conditions: 1 month
# Procedure: (§1) Male APP OSK mice (Tomiyama et al. J Neurosci. 2010; 30:4845-56) aged 11 months were prepared. APP OSK mice weigh about 30 g. The 60 APP OSK mice were classified into five groups A to E, each containing 12 mice. Separately, 12 wild-type mice (non-Tg littermate) of the same age in month were prepared.
# (§2) Administration was performed without anesthesia using a rodent oral sonte for oral administration, a Pipetman (white tip) for nasal administration, and an injection syringe for subcutaneous administration.
# Blood was sampled from mice after end of the behavior test, and serum was separated from the blood to prepare a serum sample. Hepatic enzymes AST (GOT) and ALT (GPT) in the serum sample were measured, and the degree of impaired liver function by rifampicin was compared.
# FTD model mouse = assay: Oral administration to FTD model mouse in which tau accumulates; format: in vivo
# α synuclein = α synuclein (Homo sapiens, UniProt P37840); assay: Formation of oligomers in vitro, α synuclein; format: biochemical
# Aβ oligomers = molecular target: T1, Aβ oligomers (Homo sapiens, UniProt P05067, DEL693-693); format: in vivo, mouse
# T1 construct: from tissue; host or cells: brain (hippocampus) of APP OSK transgenic mice
# Procedure: as §1, §2
# According to the procedure described in Umeda et al. Brain 2016; 139:1568-86, Aβ oligomers (Aβ oligomers are considered to cause phosphorylation of tau and reduction in synaptophysin), synaptophysin (marker protein of synapse), and phosphorylated tau were stained by immunohistological staining. For staining Aβ oligomers, 11A1 antibody (available from Immune-Biological laboratories Co., Ltd.) was used, and for staining synaptophysin, SVP-38 antibody (available from Sigma) was used. Mouse monoclonal PHF-1 antibody (anti p-Ser396/404-tau antibody, provided by Dr. Peter Davies, Albert Einstein College of Medicine) was used for staining phosphorylated tau. After staining, Aβ oligomers, synaptophysin, and phosphorylated tau were quantified by using NIH image-J.
# tau = assay: Formation of oligomers in vitro, tau; format: biochemical
# Aβ = molecular target: T2, Aβ (Homo sapiens, UniProt P05067); assay: Formation of oligomers in vitro, Aβ; format: biochemical
# T2 construct: Rifampicins have the action of suppressing formation of oligomers of amyloid β, tau, and α synuclein
# AD model mouse = assay: Oral administration to AD model mouse in which Aβ accumulates; format: in vivo
# APP OSK mouse = assay: Behavior test: space reference memory of mouse, Morris water maze; format: in vivo; conditions: 1 month
# Procedure: as §1, §2
# The behavior test was performed by measuring space reference memory of mouse using a Morris water maze according to the method of Umeda et al. Brain 2016; 139:1568-86.
smiles,measurement,setting,value
"CO[C@H]1/C=C/O[C@@]2(C)Oc3c(C)c(O)c4c(O)c(c(/C=N/N5CCN(C)CC5)c(O)c4c3C2=O)NC(=O)/C(C)=C\C=C\[C@H](C)[C@H](O)[C@@H](C)[C@@H](O)[C@@H](C)[C@H](OC(C)=O)[C@@H]1C [Rifampicin, 3-(4-methylpiperazinyliminomethyl)rifamycin SV]",Elevation of AST in comparison with CMC-administered APP OSK mouse,"[1]; Example 2: nasal, 0.05 mg/day",Slight elevation
same,Change of ALT,"[1]; any administration method (oral, nasal, subcutaneous)",no significant change was observed
same,Cognitive function of mouse,FTD model mouse,recovery of the cognitive function
same,Formation of oligomers of α synuclein,α synuclein,suppresses formation of oligomers
same,Effect of reducing Aβ oligomers in comparison for the same dosage (FIG. 3),"Aβ oligomers; Example 1: nasal, […], versus oral and subcutaneous […]",highest
same,Quantification of Aβ oligomers (FIG. 3),"Aβ oligomers; any of oral (Comparative Example 1), nasal (Example 1, Example 2), subcutaneous (Reference Example 3)",reduced to at least the same level as that in wild-type mouse
same,Formation of oligomers of tau,tau,suppresses formation of oligomers
same,Formation of oligomers of Aβ,Aβ,suppresses formation of oligomers
same,Cognitive function of mouse,AD model mouse,recovery of the cognitive function
same,Ameliorating effect on disturbance of memory (FIG. 1),"APP OSK mouse; Example 2: nasal, 0.05 mg/day",reached to the same level as in wild-type mouse
same,"Ameliorating effect on disturbance of memory compared with oral administration (Comparative Example 1, […])","APP OSK mouse; Example 2: nasal, dosage one-fifth (0.05 mg/day)",higher than the case of oral administration
same,Amelioration of disturbance of memory (FIG. 1),"APP OSK mouse; any of oral, nasal and subcutaneous administration, APP OSK mice",amelioration of disturbance of memory of APP OSK mouse was confirmed
